Assay results published in ChEMBL document CHEMBL1158333, “New diterpenes from the South African soft coral Eleutherobia aurea” (1997).

Assay: Antiinflammatory activity in rabbit neutrophils assessed as inhibition of fMLP-induced superoxide radical anion generation at 20 ug/mL
Assay type: functional
Conditions: Oryctolagus cuniculus, Neutrophil

| SMILES | inhibition at 20 µg/mL |
| --- | --- |
| C=C(C)C(CC(OC(C)=O)C1=CO[C@H](OC(C)=O)[C@H]2C(=C)CC/C=C(\C)CC[C@H]12)OC(C)=O (stereo partly drawn) [ZAHAVIN A] | > 90% |
| C=C1CC/C=C(\C)CC[C@@H]2C(C(CC=C(C)C)OC(C)=O)=CO[C@H](OC(C)=O)[C@@H]12 (stereo partly drawn) | > 90% |
| C=C(C)C(CC(OC(C)=O)C1=CO[C@H](OC(C)=O)[C@H]2C(=C)CC[C@@H]3O[C@@]3(C)CC[C@H]12)OC(C)=O (stereo partly drawn) [7,8-EPOXYZAHAVIN A] | > 90% |
